Measured values: the supplement of paper PMC10307832

Columns and labels:
Assay in all cases: relative viability (nuclei count vs DMSO), 5 days (fraction); higher = more cells survive
[1] = compound: CC1=C(C(=NN1)C)CC2=C(C3=C(S2)N(C(=O)N(C3=O)C)CC(C)C)C(=O)N4C[C@@H](CO4)O + Cc1nc(NC(=O)N2CCC[C@H]2C(N)=O)sc1-c1ccnc(C(C)(C)C(F)(F)F)c1 [Alpelisib] (partner 2 µM)
Outline: (§1)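 Lung cancer cell lines in 1536-well plates were dosed by pin tool the day after seeding, either with one drug alone or with a fixed anchor-drug dose plus five library-drug doses (not always all listed) in √10 steps. After 5 days, cells were fixed and their nuclei stained in one step (final 0.05% Triton X-100, 1% formaldehyde, 1 ug/ml Hoechst), then counted on 4× images. Relative viability is the nuclei count in treated wells divided by that in vehicle wells. Values are medians of duplicate plates.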

IDH-C35 + Palbociclib = compound: Cc1ccccc1C(C(=O)NC1CCCCC1)N(C(=O)Cn1ccnc1C)c1cccc(F)c1 [IDH-C35] + CC(=O)c1c(C)c2cnc(Nc3ccc(N4CCNCC4)cn3)nc2n(C2CCCC2)c1=O [Palbociclib] (partner 0.5 µM)
Outline: as §1

IDH-C35 + AZD7762 = compound: Cc1ccccc1C(C(=O)NC1CCCCC1)N(C(=O)Cn1ccnc1C)c1cccc(F)c1 [IDH-C35] + NC(=O)Nc1cc(-c2cccc(F)c2)sc1C(=O)N[C@H]1CCCNC1 [AZD7762] (partner 0.2 µM)
Outline: as §1

IDH-C35 + Bortezomib = compound: Cc1ccccc1C(C(=O)NC1CCCCC1)N(C(=O)Cn1ccnc1C)c1cccc(F)c1 [IDH-C35] + CC(C)C[C@H](NC(=O)[C@H](Cc1ccccc1)NC(=O)c1cnccn1)B(O)O [Bortezomib] (partner 0.002 µM)
Outline: as §1

Row | Cell Line | relative viability ([1]; first compound 0.0025 µM) | relative viability ([1]; first compound 0.007906 µM) | relative viability ([1]; first compound 0.025 µM) | relative viability ([1]; first compound 0.07906 µM) | relative viability ([1]; first compound 0.25 µM) | relative viability (IDH-C35 + Palbociclib; first compound 0.08 µM) | relative viability (IDH-C35 + Palbociclib; first compound 0.253 µM) | relative viability (IDH-C35 + Palbociclib; first compound 0.8 µM) | relative viability (IDH-C35 + Palbociclib; first compound 2.53 µM) | relative viability (IDH-C35 + Palbociclib; first compound 8 µM) | relative viability (IDH-C35 + AZD7762; first compound 0.08 µM) | relative viability (IDH-C35 + AZD7762; first compound 0.253 µM) | relative viability (IDH-C35 + AZD7762; first compound 0.8 µM) | relative viability (IDH-C35 + AZD7762; first compound 2.53 µM) | relative viability (IDH-C35 + AZD7762; first compound 8 µM) | relative viability (IDH-C35 + Bortezomib; first compound 0.08 µM) | relative viability (IDH-C35 + Bortezomib; first compound 0.253 µM) | relative viability (IDH-C35 + Bortezomib; first compound 0.8 µM) | relative viability (IDH-C35 + Bortezomib; first compound 2.53 µM) | relative viability (IDH-C35 + Bortezomib; first compound 8 µM)
1 | NCI-H1944 | 0.858 | 0.858 | 0.921 | 0.847 | 0.761 | 0.376 | 0.345 | 0.338 | 0.317 | 0.323 | 0.587 | 0.731 | 0.492 | 0.462 | 0.491 |  |  |  |  | 
2 | NCI-H1793 | 0.724 | 0.826 | 0.546 | 0.554 | 0.742 | 0.273 | 0.303 | 0.356 | 0.327 | 0.322 | 0.46 | 0.446 | 0.46 | 0.349 | 0.443 |  |  |  |  | 
3 | NCI-H520 | 0.835 | 1.04 | 0.612 | 0.536 | 0.836 | 0.206 | 0.268 | 0.215 | 0.225 | 0.23 |  |  |  |  |  | 0.759 | 0.344 | 0.636 | 0.731 | 0.756
4 | A549 | 0.838 | 0.96 | 0.744 | 0.758 | 0.961 |  |  |  |  |  |  |  |  |  |  |  |  |  |  | 
5 | NCI-H358 | 0.893 | 0.906 | 0.78 | 0.903 | 1.04 | 0.134 | 0.131 | 0.146 | 0.148 | 0.123 | 0.609 | 0.544 | 0.477 | 0.492 | 0.426 |  |  |  |  | 
6 | NCI-H1563 | 1 | 0.847 | 0.954 | 0.959 | 0.893 |  |  |  |  |  |  |  |  |  |  | 0.854 | 0.937 | 0.844 | 0.909 | 0.757
7 | NCI-H1395 | 1.04 | 0.898 | 1.06 | 0.983 | 1.01 | 0.626 | 0.605 | 0.612 | 0.601 | 0.598 | 0.396 | 0.408 | 0.407 | 0.446 | 0.403 |  |  |  |  | 
8 | NCI-H2009 | 1.31 | 1.23 | 1.14 | 1.26 | 1.15 | 0.25 | 0.28 | 0.32 | 0.227 | 0.147 |  |  |  |  |  | 1.13 | 1.01 | 1.04 | 1.03 | 0.874
9 | SW 900 |  |  |  |  |  | 0.487 | 0.568 |  | 0.522 | 0.506 | 0.564 | 0.787 |  | 0.505 | 0.549 |  |  |  |  | 
10 | IA-LM | 0.832 | 0.812 | 0.858 | 0.749 | 0.991 |  |  |  |  |  |  |  |  |  |  | 0.855 | 0.87 | 0.844 | 0.924 | 0.769
11 | SK-LU-1 | 0.879 | 0.565 | 0.537 | 0.782 | 0.582 | 0.47 | 0.387 | 0.366 | 0.391 | 0.418 |  |  |  |  |  | 1.34 | 1.33 | 1.25 |  | 1.03
12 | NCI-H1703 | 0.366 | 0.211 | 0.32 | 0.309 | 0.299 |  |  |  |  |  |  | 0.141 |  | 0.131 | 0.148 | 0.326 | 0.346 | 0.422 | 0.43 | 0.261
13 | NCI-H1648 |  |  |  |  |  |  | 0.271 | 0.322 | 0.246 | 0.285 |  | 0.578 | 0.781 | 0.687 | 0.703 |  |  |  |  | 
